Measured values from patent US8933270B2, “Use of docasatrienes, resolvins, and their stable analogs in the treatment of airway diseases and asthma” (The Brigham and Women's Hospital, Inc., priority 2002, dated 2015).

Key:
PMN infiltration = assay: Zymosan A-induced peritonitis; assay type: in vivo, FVB mice; conditions: for inhibition of PMN/leukocyte infiltration: i.v. bolus before zymosan A, lavage at 2 h
Protocol: (§1) FIG. 5 depicts Bioimpact properties of omega-3-derived Resolvins. A) Human glioma cells: Inhibition of TNF-stimulated IL-1β transcripts DBTRG-05MG cells 10^6/ml were stimulated with 50 ng/ml of human recombinant TNFα for 16 hours to induce expression of IL-1β transcripts. Concentration dependence with COX-2 products: 17-HDHA (n), 13-HDHA (l)and di-/tri-HDHA (n). […] (insets) Results are representative of RT-PCR gels of MG cells exposed to 100 nM of 13-HDHA or 17-HDHA and graphed after normalization of the IL-1β transcripts using GAPDH. B) Influence of eicosanoids and docosanoids on fMLP-induced neutrophil migration across micovascular endothelial monolayers Neutrophils (1×10^6 cells/monolayer) were exposed to vehicle containing buffer, or indicated concentrations of aspirin-triggered LXA4 analog (closed diamonds) 5S,12,18R-triHEPE (closed squares), 17R-HDHA (closed circles) or 13-HDHA (closed triangles) for 15 minutes at 37° C. Neutrophils were then layered on HMVEC monolayers and stimulated to transmigrate by a 10^−8 M fMLP gradient for 1 hr at 37° C. Transmigration was assessed by quantitation of the neutrophil marker myeloperoxidase. Results are presented as mean±SEM number of PMN (n=8-12 monolayers per condition). C) Reduction of PMN in murine peritonitis and skin pouch peritonitis: Compounds (100 ng in 120 μL sterile saline) were injected by intravenous bolus injection into the mouse tail vein and followed by 1 ml zymosan A (1 mg/ml) into the peritoneum. Peritoneal lavages were collected (2 h) and cell types were enumerated.
Human PMN transendothelial migration was quantitated by monitoring myeloperoxidase (MPO) an azurophilic granule marker as in (34, 37). Inflammatory exudates were initiated with intrapouch injection of recombinant mouse TNFα (100 ng/pouch; R&D Systems) into dorsal air pouches (10) of 6-8 wk male FVB mice fed laboratory rodent diet 5001 (Lab Diet, Purina Mills) containing less than 0.25% arachidonic acid, 1.49% EPA and 1.86% DHA followed by ASA (500 μg) at 3.5 h and 300 μg DHA/pouch at 4 h post-TNFα injection. At 6 h (within the resolution phase), pouches were lavaged (3 ml saline) and exudate cells were enumerated Inhibition of TNFα stimulated (100 ng/pouch) PMN infiltration with i.v. tail injection of either 17R-HDHA (as prepared with COX-2 vide infra), 5S,12,18R-HEPE, or a 15-epi-LXA4 analog were determined with pouch lavages taken at 4 h. Peritonitis was performed using 6 to 8-week-old FVB male mice (Charles River Laboratories) fed laboratory Rodent Diet 5001 (Purina Mills) that were anesthetized with isoflurane, and compounds to be tested (125 μl) were administered intravenously. Zymosan A in 1 ml (1 mg/ml) was injected ˜1-1.5 min later in the peritoneum. Each test compound (100 ng/incubation, i.e. 17R-HDHA in ethanol) or vehicle alone was suspended in ˜5 μl and mixed in sterile saline 120 μl. Two hours after the intraperitoneal injections, and in accordance with the Harvard Medical Area Standing Committee on Animals protocol #02570, mice were euthanized and peritoneal lavages rapidly collected for enumeration.
Peritonitis was induced in 6 to 8 week old male FVB mice by peritoneal injection of 1 mg Zymosan A. Compounds 4,17S and 10,17S-diHDHA were injected by intravenous bolus injection, 1.5 minutes before Zymosan A treatment. Two hours after induction of peritonitis, rapid peritoneal lavages were collected and cell type enumeration was performed.

[1] = tested on: IL-1β transcripts in DBTRG-05MG cells; assay: Inhibition of TNF-stimulated IL-1β transcripts (RT-PCR); assay type: cell-based, human; conditions: 50 ng/ml TNFα, 16 h; read-out: IC50, inhibition of TNFα-induced IL-1β transcripts / cytokine expression
Protocol: as §1, with “C) Reduction of PMN in murine peritonitis and skin pouch peritonitis: Compounds (100 ng in 120 μL sterile saline) were injected by intravenous bolus injection into the mouse tail vein and followed by 1 ml zymosan A (1 mg/ml) into the peritoneum. Peritoneal lavages were collected (2 h) and cell types were enumerated.” left out
Human glioma cells DBTRG-05MG cells (ATCC) were cultured as recommended by ATCC. […] Results were analyzed using the NIH Image program (http://rsb.info.nih.gov/nih-image).

human recombinant COX-2 = biological target: T1, human recombinant COX-2 (Homo sapiens, UniProt P35354); assay: Impact of NSAIDs on COX-2 conversion of DHA; assay type: biochemical
T1 construct: made in house; host or cells: Sf9 insect cells (microsomal fractions)
T1 sequence (P35354 18-604): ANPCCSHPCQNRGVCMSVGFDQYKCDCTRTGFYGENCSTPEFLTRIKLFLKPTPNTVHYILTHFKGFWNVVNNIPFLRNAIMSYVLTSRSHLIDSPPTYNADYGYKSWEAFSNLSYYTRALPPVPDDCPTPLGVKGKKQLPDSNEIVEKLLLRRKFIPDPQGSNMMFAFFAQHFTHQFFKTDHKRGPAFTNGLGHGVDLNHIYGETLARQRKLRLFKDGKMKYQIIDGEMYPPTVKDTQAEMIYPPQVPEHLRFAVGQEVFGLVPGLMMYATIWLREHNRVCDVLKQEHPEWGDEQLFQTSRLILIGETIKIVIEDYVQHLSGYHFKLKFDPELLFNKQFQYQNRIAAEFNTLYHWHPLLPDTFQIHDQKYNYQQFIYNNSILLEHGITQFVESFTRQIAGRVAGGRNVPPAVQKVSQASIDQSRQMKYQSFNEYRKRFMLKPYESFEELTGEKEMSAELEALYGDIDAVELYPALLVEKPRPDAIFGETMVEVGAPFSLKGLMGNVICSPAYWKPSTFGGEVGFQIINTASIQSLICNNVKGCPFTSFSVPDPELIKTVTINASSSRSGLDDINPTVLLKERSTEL
Protocol: Human recombinant COX-2 was overexpressed in Sf9 insect cells (ATCC). The microsomal fractions (˜8 μl) were suspended in Tris (100 mM, pH 8.0) as in (35). ASA was incubated (˜2 mM, 37° C., 30 min) with COX-2 before addition of DHA (10 μM), or in some experiments [1-^14C]-labeled DHA (from American Radiolabeled Chemicals, Inc.), and conversions were monitored in parallel using [1^−14C]-labeled C20:4 (with ASA) (as in FIG. 2; also see text).
Incubations were extracted with deuterium-labeled internal standards (15-HETE and C20:4) for LC-MS-MS analysis as in (33) using a Finnigan LCQ liquid chromatography ion trap tandem mass spectrometer (San Jose, Calif.) equipped with a LUNA C18-2 (150×2 mm×5 μm or 100×2 mm×5 μm) column and a rapid spectra scanning UV diode array detector that monitored UV absorbance ˜0.2 min prior to samples entering the MS-MS. All intact cell incubations and in vivo exudates were stopped with 2 ml cold methanol and kept at −80° C. for >30 minutes. Samples were extracted using C18 solid phase extraction and analyzed using GC-MS (see Table 2) (Hewlett-Packard), thin layer chromatography or tandem liquid chromatography-mass spectrometry (LC-MS-MS). Also, a Chiralcel OB-H column (4.6×250 mm; J. T. Baker) was used to determine R and S alcohol configurations of monohydroxy-PUFA using isocratic mobile phase (hexane:isopropanol; 97.5:2.5, vol:vol, with a 0.6 ml/min flow rate). Detailed procedures for isolation, quantitation and structural determination of lipid-derived mediators were recently reported (36) and used here essentially as reported for elucidation of novel products.
Results are the mean±SEM, n=3. Products were extracted, identified, and quantitated using deuterium internal standards and LC-MS-MS (see Methods).

leukocyte infiltration = assay: TNFα-induced dorsal air pouch; assay type: in vivo, FVB mice; conditions: FIG. 5C
[2] = tested on: airway leukocyte accumulation; assay: OVA sensitization and aerosol challenge: lung histology and BAL leukocytes; assay type: in vivo
Protocol: To determine if PD1 and Resolvin E1 had properties of a counter-regulatory mediator during airway inflammation, physiologically relevant quantities (2, 20 or 200 ng) were administered by intravenous injection to allergen sensitized animals just prior (30 min) to aerosol challenge on 4 consecutive days. […] In conjunction with decreased airway inflammation, levels of the counter-regulatory eicosanoid LXA4 were also […] in the presence of PD1 (data not shown).
Five to seven week old male FvB mice (Charles River Laboratories, Wilmington, Mass.) were housed in isolation cages under viral antibody-free conditions. Mice were fed a standard diet (Laboratory Rodent Diet 5001, PMI Nutrition International, Richmond, Ind.) that contained no less than 4.5% total fat with 0.26% omega-3 fatty acids and <0.01% C20:4. After Harvard Medical Area IRB approval (Protocol #02570), mice were sensitized with intraperitoneal injections of ovalbumin (OVA) (Grade III; Sigma Chemical Co., St. Louis, Mo.) (10 μg) plus 1 mg aluminum hydroxide (ALUM) (J. T. Baker Chemical Co.; Phillipsburg, N.J.) as adjuvant in 0.2 ml PBS on days 0 and 7. On days 14, 15, 16 and 17, the mice received PD1 (2, 20 or 200 ng), Resolvin E1 (200 ng) (products of biogenic synthesis (Hong, Gronert et al. 2003)), or PBS with 1.6 mM CaCl2 and 1.6 mM MgCl2 (0.1 ml) by intravenous injection 30 min prior to an aerosol challenge containing either PBS or 6% OVA for 25 min/day. On day 18, 24 h after the last aerosol challenge, airway responsiveness to aerosolized methacholine (0, 20, 50 and 75 mg, 10 sec) was measured, bilateral bronchoalveolar lavage (BAL) (2 aliquots of 1 ml PBS plus 0.6 mM EDTA) was performed or tissues were harvested for histological analysis. Lung resistance was measured using a Flexivent ventilator (SciReq, Montreal, Quebec). Resistance was measured as a function of time for each animal, and peak and average values for each dose of methacholine were recorded. No BAL or histological analysis was performed on those animals undergoing airway hyper-responsiveness or lipid extraction studies.
Tissue morphometry was performed by a member (K. Haley) of the Lung Histopathology Core Laboratory at Brigham and Women's Hospital who was blinded to the experimental conditions prior to histological analyses. Three fields per slide were examined at 200× magnification for vessels, large airways and alveoli with EOS counted at 400× magnification in randomly assigned fields. Vessels were identified by perivascular smooth muscle, and large airways were identified by at least ½ their diameter either cuboidal or columnar epithelia. Measurement of inflammatory mediators was determined in cell-free BAL fluid (2000 g, 10 min) by sensitive and specific ELISAs, in tandem, for interleukin-5 (IL-5), IL-12, IL-13, PGD2 (R&D Systems, Minneapolis, Minn.), cysteinyl LTs, (Cayman Chemical Co, Ann Arbor, Mich.), and LXA4 (Neogen, Lexington, Ky.). Cells in BALF were resuspended in PBS, enumerated by hemocytometer, and concentrated onto microscope slides by cytocentrifuge (STATspin) (265 g). Cells were stained with a Wright-Giemsa stain (Sigma Chemical Co.) to determine leukocyte differentials (after counting ≧200 cells).

## CCC(O)/C=C/C=C\C/C=C\C/C=C\C=C\[C@@H](O)CCCC(=O)O (mixture of isomers) [5S,18(+/−)-diHEPA]
PMN infiltration; PMN/leukocyte infiltration, FIG. 16 and FIG. 18
  potency relative to comparator at equal dose: equipotent to Resolvin E1
PMN infiltration
  inhibition of PMN/leukocyte infiltration: downregulation of PMN infiltration
PMN infiltration; listed as 5S,18(+/−)-diHEPE
  inhibition of PMN/leukocyte infiltration: reduction of neutrophil infiltration

## CC/C=C\C[C@H](O)/C=C/C=C\C=C\[C@@H](O)C/C=C\CC#CCCC(=O)O [4,5-dehydro 10,17S-dihydroxy DHA]
PMN infiltration; 100 ng dose
  inhibition of the PMN infiltration: 40%

## CC/C=C\C[C@H](O)/C=C/C=C\CC(O)\C=C/C=C/C=C/[C@@H](O)CCC(=O)O (stereo partly drawn) [4S,11,17R-triHDHA, 4S,11,17S,-trihydroxy-docosa-5E,7E,9Z,13Z,15E,19Z-hexaenoic acid]
PMN infiltration
  inhibition of PMN/leukocyte infiltration: potent inhibitor

## CC/C=C\C[C@@H](O)/C=C/C=C\C/C=C\C=C\[C@@H](O)C/C=C\CCC(=O)O [7S,17R-diHDHA, 7S,17R-dihydroxy-docosa-4Z,8E,10Z,13Z,15E,19Z-hexaenoic acid]
PMN infiltration
  inhibition of PMN/leukocyte infiltration: potent inhibitor

## CC/C=C\C/C=C\C=C\C(O)C/C=C\C/C=C\C/C=C\CCC(=O)O (centres unmarked) [13-HDHA, 13-hydroxy-DHA]
[1]
  IC50: ~0.05 nM

## CC(=O)Nc1ccc(O)cc1 [Acetaminophen, acetaminophen]
Human recombinant COX-2; NSAID incubated 30 min with COX-2, ASA 2 mM, indomethacin 200 μM, acetaminophen 500 μM, NS398 100 μM, mean±SEM, n=3
  % Increase of 17-HDHA: 0.0%
Human recombinant COX-2; read-out: % Inhibition of 13-HDHA
  inhibition at 500 µM: 87.7 ± 4.3%
Human recombinant COX-2; recombinant COX-2 incubations
  formation of 17R-HDHA from DHA by NSAID-treated COX-2: did not give appreciable amounts of 17R-HDHA

## CC[C@@H](O)/C=C/C=C\C[C@@H](O)/C=C/C=C/C=C\[C@@H](O)CCCC(=O)O [EPA-derived 5,12,18R series product]
Leukocyte infiltration
  prevention of leukocyte diapedesis and exudate formation relative to 15-epi-lipoxin A4 stable analog: as effective as a potent stable analog of 15-epi-lipoxin A4

## CC[C@@H](O)/C=C/C=C\C[C@@H](O)/C=C/C=C/C=C\[C@@H](O)CCCC(=O)O [Resolvin E1, 5S,12R,18R-trihydroxy-6Z,8E,10E,14Z,16E-eicosapentaenoic acid]
[2]; 10,17-DT 20 ng and 200 ng, Resolvin E1 200 ng
  eosinophil and lymphs (FIG. 25): reduction
[2]; PD1 2, 20 or 200 ng, Resolvin E1 200 ng i.v.
  total leukocytes, EOS and Lymphs in BAL fluid: decreased
PMN infiltration
  inhibition of PMN/leukocyte infiltration: reduction of neutrophil infiltration
